In PubChem BioAssay (NCI) one finds TGI and GI50 data, which are given here for 32 compounds.

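Cells were grown in 96-well plates and exposed to each compound for 48 hours at five concentrations; endpoints were interpolated linearly between bracketing concentrations, or set to the highest concentration if not reached. GI50 = concentration required for 50% inhibition of growth. TGI: concentration producing complete growth inhibition.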

What all share (test): DTP human tumour cell line panel, 48 h
Test [1] concerns SK-OV-3 ovarian.
Test [2] relates to 786-0 renal.
Test [3] concerns A498 renal.
In test [4] the test system is KM12 colon.
In test [5] the test system is NCI-H460 lung.
For test [6], the system named is NCI-H522 lung.
Test [7] relates to HCC-2998 colon.
The subject of test [8] is SN12C renal.
Test [9] deals with MDA-MB-231 breast.
Test [10] deals with DU-145 prostate.

On to `CCN(CC)CC(C(=O)Nc1c(C)cccc1C)/C(C)=N/NC(N)=S` (stereo unspecified), for which the TGI in [1], in [2], in test [3], in [4], in test [5] and in test [6] was > 100 µM in each case. Besides, the TGI (as a rule, the concentration at which net growth stops) in test [7] was > 100 µM.
Turning to `O=C1/C(=C/c2ccc([N+](=O)[O-])s2)Oc2ccc(Cl)cc21`, the GI50 (in general, the concentration at which growth is held to half of that of the control) is 2.1 µM in [1]; 0.887 µM in [2]; 1.74 µM in [3]; 0.24 µM in test [4]; 0.593 µM in test [8]; 0.675 µM in [5]. For the same compound, the values for the GI50 in test [6], in test [9] and in test [7] were 0.198 µM, 0.231 µM and 0.515 µM, respectively. Moreover, the TGI is 4.42 µM in test [1]; 3.21 µM in [2]; 4.91 µM in [3]; 0.593 µM in [4]; 1.79 µM in test [8]; 2.18 µM in test [5]. Also, the TGI in test [6] is 0.435 µM; in test [9] it was 0.586 µM; in test [7], 1.33 µM.
With `CCc1cccc(C(C)C)c1C1C(=O)C(=O)N(c2nc3ccccc3s2)C(=O)C1=O`, the TGI in test [1], in test [2], in test [3], in test [4], in test [8] and in [5] was > 100 µM each time. Further, the TGI in test [7] was > 100 µM.
Regarding `Nc1n[nH]c(=O)c2c1c(Br)cn2C1OC(CO)C(O)C1O` (stereo unspecified), the TGI in [1] was > 100 µM; in [2], > 100 µM; in [3], > 71.2 µM; in test [4], > 100 µM; in [8], 43.5 µM; in test [5], > 100 µM. In addition, the TGI is 25.2 µM in test [6] and 24.7 µM in test [7].
With `Cc1cc(N2CCOCC2)nc(N(CCNc2ccnc3cc(Cl)ccc23)Cc2cccs2)n1`, the GI50 in [2] was 1.69 µM; in [4] it was 2.23 µM; in test [8] it was 1.9 µM; in test [6] it was 1.72 µM; in test [9], 1.97 µM; in test [7], 2.39 µM. The TGI stood at 3.12 µM in test [2]; 5.34 µM in test [4]; 4.01 µM in test [8]; 3.72 µM in test [6]; 3.64 µM in test [9]; 5.11 µM in [7].
With `Cc1nc2c(=O)n(C)c(=O)nc-2n(-c2ccc(Cl)cc2)c1C`, the TGI in [1], in test [2], in [3], in [4], in test [8] and in [5] was > 100 µM throughout. Further, the total growth inhibition concentration (TGI) in test [6] and in [7] was > 100 µM throughout.
With `O=C1c2ccccc2CC1C1(O)C(=O)Nc2c(Cl)cc(Cl)cc21` (stereo unspecified), the TGI was > 100 µM in [1]; > 100 µM in test [2]; > 100 µM in test [4]; > 100 µM in test [8]; > 100 µM in test [5]; 47.3 µM in test [6]. In addition, the TGI in test [7] is > 100 µM.
For `COC(=O)c1c(OC(=O)c2ccccc2)noc1CC(=O)OC1C=CCCC1` (stereo unspecified), the TGI in test [1], in test [2], in test [3], in test [4], in test [8] and in test [5] was > 100 µM in each case. Besides, the TGI in test [6] and in [7] was > 100 µM throughout.
`CC(=O)OC12CCCCC1C1(CCCC1)NC2=O` (stereo unspecified): the TGI in [1], in test [2], in [3], in test [4], in test [8] and in test [5] was > 100 µM in each case. Besides, the TGI in [7] is > 100 µM.
For the compound `Cc1ccc(S(=O)(=O)c2ccccn2)cc1`, the TGI in test [1], in test [2], in test [3], in [4], in [8] and in test [5] was > 100 µM in each case. Moreover, the TGI in test [6] and in [7] was > 100 µM throughout.
With `Cc1nn(C(=O)CC(=O)Nc2ccccc2Cl)c(C)c1N=Nc1ccccc1Cl`, the TGI in test [1], in [2], in [3], in test [4], in test [8] and in test [5] was > 100 µM throughout. Besides, the TGI in test [7] is > 100 µM.
For `O=S(O)CCCSSCCCCSSCCCS(=O)O`, the TGI in test [1], in test [2], in test [3], in test [4], in [8] and in test [5] was > 100 µM in each case. For the same compound, the TGI in test [6] and in test [7] was > 100 µM in each case.
As for `CC/C(=C(\c1ccccc1)c1ccc(OCC[N+](C)(C)C)cc1)c1ccccc1`, the TGI in test [1] was determined as 34.5 µM; in test [2], 27.9 µM; in [3], 40.6 µM; in test [4] it was 29.8 µM; in test [8] it was 25.7 µM; in [5], 37.4 µM. Also, the TGI stood at 18.7 µM in [6] and 34.2 µM in test [7].
Take `CCCCCC1C2C(=O)NC(=O)C1C(=O)NC2=O` (stereo unspecified): the TGI in [1], in test [2], in test [3], in [4], in test [8] and in test [5] was > 100 µM in each case. In addition, the TGI in [6] and in test [7] was > 100 µM throughout.
On to `Cc1ccc(S(=O)(=O)NC2(C=O)CCC(C(C)(C)C)CC2)cc1` (stereo unspecified), for which the TGI was > 100 µM in test [1]; > 100 µM in test [2]; > 100 µM in test [3]; 84.5 µM in test [4]; 68.7 µM in test [8]; > 100 µM in test [5]. Besides, the TGI was 54.9 µM in test [6] and > 100 µM in test [7].
In the case of `COc1ccc(/C=C(\NC(=O)c2ccccc2)c2nc3ccccc3[nH]2)cc1`, the TGI in test [1] is 96.5 µM; in [2], > 100 µM; in [3] it was > 100 µM; in test [4], > 100 µM; in test [8], > 100 µM; in test [5], > 100 µM. Further, the TGI in test [6] and in test [7] was > 100 µM in each case.
Turning to `Cc1ccc(SCN2CCCCC2)cc1` (tested in a mixture with another compound), the TGI in test [1] stood at 29.7 µM; in [2], 29.9 µM; in test [3], 14.7 µM; in test [4], 26.5 µM; in [8], 31.4 µM; in [10], 28.1 µM. Besides, the TGI in test [6] worked out at 8.86 µM; in [9], 27.7 µM.
As for `CC(=O)/C=C\C(=O)NNS(=O)(=O)c1ccc(C)cc1`, the TGI in test [1], in test [2], in [3], in test [4], in test [8] and in test [5] was > 100 µM throughout. The TGI in [6] and in test [7] was > 100 µM each time.
For `O=C(Nc1cccc(Cl)c1)c1cc2cc(N=Nc3ccc(Br)cc3)ccc2oc1=O`, the TGI was > 100 µM in test [1]; > 100 µM in test [2]; > 100 µM in test [3]; 76 µM in [4]; > 100 µM in test [8]; > 100 µM in test [5]. Also, the TGI was > 100 µM in test [6] and 88.7 µM in test [7].
As to `O=C(Cc1nc2ccccc2s1)C(=O)Nc1ccccc1C(F)(F)F`, the TGI in test [1], in test [2], in [3], in [4], in test [8] and in test [5] was > 100 µM throughout. The TGI in [6] and in test [7] was > 100 µM each time.
Regarding `Cc1cn2cc(-c3ccncc3)nc2s1`, the TGI in test [1], in [2], in test [3], in test [4], in test [8] and in [5] was > 100 µM throughout. Further, the TGI in test [6] and in [7] was > 100 µM each time.
Regarding `O=C1OC2C(O)COC2(OCc2c[nH]c3ccccc23)C1O` (stereo unspecified) (tested in a mixture with another compound), the TGI in test [1], in [2], in test [3], in [4], in [8] and in test [5] was > 100 µM throughout. The TGI in [6] is > 100 µM.
Consider `CC(=O)NC1C(=O)CC(c2ccccc2)N(C)C1c1ccccc1` (stereo unspecified), for which the TGI in [1], in [2], in [3], in [4], in test [8] and in test [5] was > 100 µM throughout. Moreover, the TGI in [6] and in test [7] was > 100 µM in each case.
Take `CC1CCCC2(O1)OC1CC(=O)OC1C1=C2C(=O)c2ccccc2C1=O` (stereo unspecified): the TGI in test [1] amounted to 30 µM; in test [2] it was 3.85 µM; in test [3], 33.8 µM; in [4], 31.7 µM; in test [8], 4.77 µM; in test [5] it was 67.2 µM. The figures for the TGI in test [6] and in [7] were 3.65 µM and 8.7 µM, respectively.
For `O=c1c2ccccc2nc(-c2ccccc2Cl)n1NC1OC(CO)C(O)C(O)C1O` (stereo unspecified), the TGI in [1], in test [2], in test [3], in test [4], in test [8] and in [5] was > 100 µM in each case. In addition, the TGI in test [6] and in test [7] was > 100 µM in each case.
For the compound `COCC(O)CN1C(N)=NC(O)C1O` (stereo unspecified), the TGI in [2], in test [4], in [8], in test [5], in test [6] and in [7] was > 100 µM throughout.
Turning to `CCOc1ccccc1Nc1nc(C)c(C(=O)CC(=O)C(=O)Nc2ccccc2)s1`, the TGI in test [1], in test [2], in test [3], in [4], in test [8] and in [5] was > 100 µM throughout. The TGI in test [6] is 84.8 µM; in test [7], > 100 µM.
Turning to `CCCC1C2=C(C(=O)OC2=O)C2C(CC)CC3=C(C(=O)OC3=O)C12` (stereo unspecified), the TGI in [1], in test [2], in test [3], in test [4], in [8] and in [5] was > 100 µM each time. Further, the TGI in test [10] and in [9] was > 100 µM throughout.
In the case of `COc1cc(C2C(C(=O)Nc3ccc(Cl)c(Cl)c3)=C(C)NC(C)=C2C(=O)Nc2ccc(Cl)c(Cl)c2)ccc1O`, the TGI came to 34.5 µM in test [1]; 25.3 µM in test [2]; 28.5 µM in [3]; 27 µM in [4]; 30.9 µM in test [8]; 35.5 µM in test [5]. For the same compound, the TGI is 14.7 µM in [6] and 23.5 µM in test [7].
As for `O=C1[C@@H]2C3C=CC([C@H]4C(=O)N(CO)C(=O)[C@@H]34)[C@@H]2C(=O)N1CO`, the TGI in test [1] is > 100 µM; in test [2] it was > 63.6 µM; in [3], > 100 µM; in test [4], > 100 µM; in test [8], > 100 µM; in test [5] it was > 55.1 µM. Besides, the values for the TGI in test [6] and in test [7] were > 56.5 µM and > 100 µM, respectively.
For `S=C(N/N=C/c1ccccc1)NC1CC(c2ccccc2)Oc2ccccc21` (stereo unspecified), the total growth inhibition concentration (TGI) in [1], in test [2], in test [4], in test [8], in test [5] and in test [6] was > 100 µM in each case. Moreover, the TGI in [7] was > 100 µM.
Turning to `O=[N+]([O-])c1ccc(-c2ccc(C3=Nn4c(nnc4-c4ccc(Cl)cc4)SC3)o2)cc1`, the TGI in [1], in [2], in test [3], in test [4], in test [8] and in [5] was > 100 µM in each case. In addition, the TGI in test [6] and in test [7] was > 100 µM in each case.
